{"source": "patent US9446039B2", "about": "“Aminoheteroaryl compounds as MTH1 inhibitors” (CEMM—FORSCHUNGSZENTRUM FÜR MOLEKULARE MEDIZIN GMBH, priority 2012, dated 2016)", "format_in_all_cases": "binding", "key": {"[1]": {"target": "T1, SW480 colon carcinoma cells lysate proteins (Homo sapiens, UniProt P11169)", "T1 sequence (P11169 1-496)": "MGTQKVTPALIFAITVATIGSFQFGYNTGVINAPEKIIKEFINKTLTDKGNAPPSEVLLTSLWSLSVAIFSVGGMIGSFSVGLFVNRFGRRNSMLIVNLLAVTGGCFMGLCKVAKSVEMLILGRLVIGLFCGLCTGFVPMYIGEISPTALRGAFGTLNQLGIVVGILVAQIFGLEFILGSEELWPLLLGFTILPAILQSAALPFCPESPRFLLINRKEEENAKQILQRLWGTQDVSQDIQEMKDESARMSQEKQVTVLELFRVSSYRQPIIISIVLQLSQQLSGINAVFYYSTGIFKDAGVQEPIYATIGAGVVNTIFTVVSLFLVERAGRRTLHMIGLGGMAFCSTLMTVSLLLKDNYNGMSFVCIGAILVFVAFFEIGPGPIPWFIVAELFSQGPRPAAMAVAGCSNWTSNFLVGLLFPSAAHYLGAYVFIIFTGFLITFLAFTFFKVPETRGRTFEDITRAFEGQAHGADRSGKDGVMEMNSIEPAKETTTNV", "conditions": "PreyGene SLC2A3"}, "[2]": {"target": "T2, SW480 colon carcinoma cells lysate proteins (Homo sapiens, UniProt P21980)", "T2 sequence (P21980 1-687)": "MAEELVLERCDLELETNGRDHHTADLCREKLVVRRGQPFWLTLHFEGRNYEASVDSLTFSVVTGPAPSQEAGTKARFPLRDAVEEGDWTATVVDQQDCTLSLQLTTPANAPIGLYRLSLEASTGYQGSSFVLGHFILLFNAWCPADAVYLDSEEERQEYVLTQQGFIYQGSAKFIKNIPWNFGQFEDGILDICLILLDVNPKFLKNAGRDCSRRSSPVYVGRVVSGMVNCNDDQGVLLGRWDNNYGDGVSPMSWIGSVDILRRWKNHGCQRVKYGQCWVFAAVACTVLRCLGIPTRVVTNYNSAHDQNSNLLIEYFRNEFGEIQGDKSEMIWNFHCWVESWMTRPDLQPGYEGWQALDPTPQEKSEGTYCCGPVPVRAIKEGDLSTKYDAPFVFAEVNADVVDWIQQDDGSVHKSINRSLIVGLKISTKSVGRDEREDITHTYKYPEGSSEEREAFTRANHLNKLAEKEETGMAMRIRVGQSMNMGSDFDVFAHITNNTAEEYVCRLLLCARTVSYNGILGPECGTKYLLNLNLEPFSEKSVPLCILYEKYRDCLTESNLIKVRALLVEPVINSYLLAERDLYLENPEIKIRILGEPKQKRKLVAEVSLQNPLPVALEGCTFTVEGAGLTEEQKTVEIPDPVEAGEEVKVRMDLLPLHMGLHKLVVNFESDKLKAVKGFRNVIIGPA", "conditions": "PreyGene TGM2"}, "[3]": {"target": "SW480 colon carcinoma cells lysate proteins (Homo sapiens, UniProt P23526)", "sequence (P23526 whole entry)": "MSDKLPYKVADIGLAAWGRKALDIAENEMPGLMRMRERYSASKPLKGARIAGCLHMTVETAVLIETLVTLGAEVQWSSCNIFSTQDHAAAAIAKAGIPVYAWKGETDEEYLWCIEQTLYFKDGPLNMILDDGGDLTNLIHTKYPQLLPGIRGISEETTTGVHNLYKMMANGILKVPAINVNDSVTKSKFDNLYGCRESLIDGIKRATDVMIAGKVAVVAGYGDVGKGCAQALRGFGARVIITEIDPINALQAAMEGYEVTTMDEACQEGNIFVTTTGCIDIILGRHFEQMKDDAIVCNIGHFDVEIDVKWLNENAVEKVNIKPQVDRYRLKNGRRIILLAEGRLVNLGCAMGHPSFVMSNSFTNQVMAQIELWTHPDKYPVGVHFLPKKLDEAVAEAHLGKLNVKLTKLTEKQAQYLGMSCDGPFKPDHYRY", "conditions": "PreyGene AHCY"}, "[4]": {"target": "SW480 colon carcinoma cells lysate proteins (Homo sapiens, UniProt P62861)", "conditions": "PreyGene FAU"}, "[5]": {"target": "T3, SW480 colon carcinoma cells lysate proteins (Homo sapiens, UniProt P68402)", "T3 sequence (P68402 1-229)": "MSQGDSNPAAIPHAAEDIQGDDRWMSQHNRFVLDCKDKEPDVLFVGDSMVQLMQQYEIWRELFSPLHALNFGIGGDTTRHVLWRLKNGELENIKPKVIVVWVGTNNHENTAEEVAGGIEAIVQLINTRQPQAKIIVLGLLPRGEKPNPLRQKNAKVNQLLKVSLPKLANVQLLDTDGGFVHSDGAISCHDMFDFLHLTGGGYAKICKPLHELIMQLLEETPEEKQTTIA", "conditions": "PreyGene PAFAH1B2; SW480 cells"}, "[6]": {"target": "SW480 colon carcinoma cells lysate proteins (Homo sapiens, UniProt Q02878)", "conditions": "PreyGene RPL6; SW480 cells"}, "[7]": {"target": "SW480 colon carcinoma cells lysate proteins (Homo sapiens, UniProt Q13283)", "sequence (Q13283 whole entry)": "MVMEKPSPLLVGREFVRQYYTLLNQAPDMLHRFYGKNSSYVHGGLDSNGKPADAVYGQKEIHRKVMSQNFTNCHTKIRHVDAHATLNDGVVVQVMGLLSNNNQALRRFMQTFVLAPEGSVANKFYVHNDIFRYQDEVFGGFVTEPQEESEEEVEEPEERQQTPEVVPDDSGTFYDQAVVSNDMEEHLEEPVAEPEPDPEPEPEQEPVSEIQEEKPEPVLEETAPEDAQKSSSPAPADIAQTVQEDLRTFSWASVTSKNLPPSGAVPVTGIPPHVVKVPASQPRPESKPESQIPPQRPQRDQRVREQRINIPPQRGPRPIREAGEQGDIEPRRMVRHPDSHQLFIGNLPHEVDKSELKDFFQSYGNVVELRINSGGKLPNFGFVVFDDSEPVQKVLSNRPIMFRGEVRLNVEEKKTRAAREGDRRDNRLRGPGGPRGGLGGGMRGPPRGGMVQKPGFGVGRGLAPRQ", "conditions": "PreyGene G3BP1; SW480 cells"}, "[8]": {"target": "SW480 colon carcinoma cells lysate proteins (Homo sapiens, UniProt Q16555)", "conditions": "PreyGene DPYSL2"}, "[9]": {"target": "SW480 colon carcinoma cells lysate proteins (Homo sapiens, UniProt Q9UHV9)", "sequence (Q9UHV9 whole entry)": "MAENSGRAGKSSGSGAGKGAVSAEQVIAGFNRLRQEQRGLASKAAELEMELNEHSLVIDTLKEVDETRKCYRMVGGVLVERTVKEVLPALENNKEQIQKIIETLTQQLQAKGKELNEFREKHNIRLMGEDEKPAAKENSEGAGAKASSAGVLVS", "conditions": "PreyGene PFDN2"}}}
{"molecule": "C[C@H](Oc1cc(-c2cnn(C3CCNCC3)c2)cnc1N)c1c(Cl)ccc(F)c1Cl", "note": "[(5)-crizotinib]", "values": [{"measurement": "AvgP", "setting": "[1]", "value": 0.1834}, {"measurement": "SC.Exp. 1-1", "setting": "[1]", "value": 3}, {"measurement": "SC.Exp. 1-2", "setting": "[1]", "value": 0}, {"measurement": "SC.Exp. 2-1", "setting": "[1]", "value": 0}, {"measurement": "SC.Exp. 2-2", "setting": "[1]", "value": 0}, {"measurement": "Sum (SC.Exp.)", "setting": "[1]", "value": 3}, {"measurement": "AvgP", "setting": "[2]", "value": 0.2455}, {"measurement": "SC.Exp. 1-1", "setting": "[2]", "value": 6}, {"measurement": "SC.Exp. 1-2", "setting": "[2]", "value": 5}, {"measurement": "SC.Exp. 2-1", "setting": "[2]", "value": 0}, {"measurement": "SC.Exp. 2-2", "setting": "[2]", "value": 0}, {"measurement": "Sum (SC.Exp.)", "setting": "[2]", "value": 11}, {"measurement": "AvgP", "setting": "[3]", "value": 0.4716}, {"measurement": "SC.Exp. 1-1", "setting": "[3]", "value": 4}, {"measurement": "SC.Exp. 1-2", "setting": "[3]", "value": 4}, {"measurement": "SC.Exp. 2-1", "setting": "[3]", "value": 0}, {"measurement": "SC.Exp. 2-2", "setting": "[3]", "value": 0}, {"measurement": "Sum (SC.Exp.)", "setting": "[3]", "value": 8}, {"measurement": "AvgP", "setting": "[4]", "value": 0.2109}, {"measurement": "SC.Exp. 1-1", "setting": "[4]", "value": 2}, {"measurement": "SC.Exp. 1-2", "setting": "[4]", "value": 4}, {"measurement": "SC.Exp. 2-1", "setting": "[4]", "value": 0}, {"measurement": "SC.Exp. 2-2", "setting": "[4]", "value": 2}, {"measurement": "Sum (SC.Exp.)", "setting": "[4]", "value": 8}, {"measurement": "AvgP", "setting": "[5]", "value": 0}, {"measurement": "SC.Exp. 1-1", "setting": "[5]", "value": 1}, {"measurement": "SC.Exp. 1-2", "setting": "[5]", "value": 1}, {"measurement": "SC.Exp. 2-1", "setting": "[5]", "value": 0}, {"measurement": "SC.Exp. 2-2", "setting": "[5]", "value": 0}, {"measurement": "SC.Exp. Sum", "setting": "[5]", "value": 2}, {"measurement": "AvgP", "setting": "[6]", "value": 0}, {"measurement": "SC.Exp. 1-1", "setting": "[6]", "value": 7}, {"measurement": "SC.Exp. 1-2", "setting": "[6]", "value": 11}, {"measurement": "SC.Exp. 2-1", "setting": "[6]", "value": 4}, {"measurement": "SC.Exp. 2-2", "setting": "[6]", "value": 6}, {"measurement": "SC.Exp. Sum", "setting": "[6]", "value": 28}, {"measurement": "AvgP", "setting": "[7]", "value": 0}, {"measurement": "SC.Exp. 1-1", "setting": "[7]", "value": 2}, {"measurement": "SC.Exp. 1-2", "setting": "[7]", "value": 2}, {"measurement": "SC.Exp. 2-1", "setting": "[7]", "value": 3}, {"measurement": "SC.Exp. 2-2", "setting": "[7]", "value": 2}, {"measurement": "SC.Exp. Sum", "setting": "[7]", "value": 9}, {"measurement": "AvgP", "setting": "[8]", "value": 0.3678}, {"measurement": "SC.Exp. 1-1", "setting": "[8]", "value": 6}, {"measurement": "SC.Exp. 1-2", "setting": "[8]", "value": 4}, {"measurement": "SC.Exp. 2-1", "setting": "[8]", "value": 0}, {"measurement": "SC.Exp. 2-2", "setting": "[8]", "value": 0}, {"measurement": "Sum (SC.Exp.)", "setting": "[8]", "value": 10}, {"measurement": "AvgP", "setting": "[9]", "value": 0.3862}, {"measurement": "SC.Exp. 1-1", "setting": "[9]", "value": 2}, {"measurement": "SC.Exp. 1-2", "setting": "[9]", "value": 2}, {"measurement": "SC.Exp. 2-1", "setting": "[9]", "value": 0}, {"measurement": "SC.Exp. 2-2", "setting": "[9]", "value": 0}, {"measurement": "Sum (SC.Exp.)", "setting": "[9]", "value": 4}]}
